# Data as given in patent US4247702A, “Method of stabilizing 4-methyl-5-(2'chloroethyl)-thiazol” (Pharmaceutical Licences Company Ltd., priority 1978, dated 1981).
# Assay: Chloride analysis of decomposition deposit of Clomethiazol-Base kept 7 days at 70° C.
# Format: physicochemical
# Conditions: deposit after 7 days at 70° C., washed with benzene
# Method: Freshly distilled Clomethiazol-Base was kept for 7 days at 70° C., and the precipitated brown deposit (decomposition products) was washed with benzene and analyzed.
compound,measurement,value
"Cc1ncsc1CCCl [CMT-Base, 4-Methyl-5-(2'-Chlorethyl)-thiazol]",total chloride greater than the sum of free chloride and chloride of occluded CMT-Base and CMT-HCl (chloride surplus),17%
